According to US20200093856A1, “Hydrogen-containing composition for ameliorating depressive symptom” (MiZ Company Limited, priority 2018, published 2020):

Test system: patient diagnosed as having depression
Assay: Case of improvement of depressive symptoms by aspiration (or inhalation) of hydrogen
Assay type: in vivo, human
Details: for symptoms (depressive symptoms, anthropophobia, insomnia) under prescribed medication: patient, Abilify intramuscular injections, Lexotan Tablet 2 and Brotizolam Tablet taken together, before hydrogen
Excerpt: A patient diagnosed as having depression, who had suffered from anthropophobia and insomnia along with depressive symptoms, received intramuscular injections of Abilify™ (Otsuka Pharmaceutical Co., Ltd. (Japan); with indication of depressive disorder) prescribed by a doctor at the department of psychiatry, and took Lexotan™ Tablet 2 (Chugai Pharmaceutical Co., Ltd. (Japan); with an indications of anxiety and tension associated with depressive disorder) and Brotizolam Tablet (Choseido Pharmaceutical Co., Ltd.; with indication of insomnia); however, the symptoms were not improved. Thus, hydrogen gas (70 to 140 ml/min) was aspirated for 1 hour once or twice a day using a hydrogen aspirator (MHG-2000α™ (MiZ Company Limited)) over about half a year while the medication was continued. As a result, the number of days on which it was possible to naturally fall asleep increased (2 or 3 days a week), and the liveliness of voice was enhanced. About half a year after the start of aspiration (or inhalation) of hydrogen gas, administration of the Brotizolam Tablet was discontinued, and the amount of hydrogen gas aspirated was increased (280 ml/min for 6 hours per day). The aspiration of hydrogen gas was continued over about 3 months. As a result, the depressive symptoms were improved, and therefore the use of Abilify and Lexotan Tablet 2 was discontinued on the basis of the doctor's judgement. […] After the use of Abilify and Lexotan Tablet 2, aspiration of hydrogen gas (280 ml/min for 6 hours per day) was continued.

[1] = hydrogen gas 280 ml/min for 6 hours per day continued after Abilify and Lexotan Tablet 2 were discontinued

Compound: O=C1CCc2ccc(OCCCCN3CCN(c4cccc(Cl)c4Cl)CC3)cc2N1 [Abilify, aripiprazole, reference compound]
- symptoms (depressive symptoms, anthropophobia, insomnia) under prescribed medication: not improved

Compound: Cc1nnc2n1-c1sc(Br)cc1C(c1ccccc1Cl)=NC2 [Brotizolam Tablet, Brotizolam, reference compound]
- symptoms (depressive symptoms, anthropophobia, insomnia) under prescribed medication: not improved

Compound: O=C1CN=C(c2ccccn2)c2cc(Br)ccc2N1 [Lexotan Tablet 2, bromazepam, reference compound]
- symptoms (depressive symptoms, anthropophobia, insomnia) under prescribed medication: not improved

Compound: [HH] [hydrogen gas, hydrogen]
- liveliness of voice (hydrogen gas 70 to 140 ml/min aspirated 1 hour once or twice a day over about half a year, medication continued): enhanced
- care personnel's evaluation of the patient [1]: being much more cheerful in disposition than before
- depressive symptoms [1]: improved to the extent that the patient went outside more frequently than before, and enjoyed a life similar to a healthy person
- depressive symptoms (hydrogen gas 280 ml/min for 6 hours per day over about 3 months, Brotizolam discontinued, Abilify and Lexotan continued): improved
- improving effect on depressive symptoms versus amount of hydrogen gas aspirated per day (same patient, 70 to 140 ml/min 1 hour once or twice a day versus 280 ml/min 6 hours per day): enhanced as the amount of hydrogen gas aspirated by the patient per day increases
